System: 855422-203-R-J1-PDC complex spheroids, viability
Assay: Anticancer human tumor 855422-203-R-J1-PDC patient-derived bladder carcinoma cell line growth inhibition [CLK]
Details: for IC50: curve of first compound; for viability, T/C: stronger effect = lower value
Outline: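 Multi-cell-type spheroids combined patient-derived tumor cells with HUVEC endothelial cells and human mesenchymal stem cells. Paired agents were dosed in half-log steps down from about clinical Cmax, or from 10 microM where Cmax was unknown.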

[1] = second compound 0.0316 µM, first compound 0.0316 µM
[2] = second compound 0.0316 µM, first compound 0.1 µM
[3] = second compound 0.0316 µM, first compound 0.316 µM
[4] = second compound 0.0316 µM, first compound 1 µM
[5] = second compound 0.0316 µM, first compound 3.16 µM
[6] = second compound 0.0316 µM, first compound 10 µM
[7] = second compound 0.1 µM, first compound 0.0316 µM
[8] = second compound 0.1 µM, first compound 0.1 µM
[9] = second compound 0.1 µM, first compound 0.316 µM
[10] = second compound 0.1 µM, first compound 1 µM
[11] = second compound 0.1 µM, first compound 3.16 µM
[12] = second compound 0.1 µM, first compound 10 µM
[13] = second compound 0.316 µM, first compound 0.0316 µM
[14] = second compound 0.316 µM, first compound 0.1 µM
[15] = second compound 0.316 µM, first compound 0.316 µM
[16] = second compound 0.316 µM, first compound 1 µM
[17] = second compound 0.316 µM, first compound 3.16 µM
[18] = second compound 0.316 µM, first compound 10 µM
[19] = second compound 1 µM, first compound 0.0316 µM
[20] = second compound 1 µM, first compound 0.1 µM
[21] = second compound 1 µM, first compound 0.316 µM
[22] = second compound 1 µM, first compound 1 µM
[23] = second compound 1 µM, first compound 3.16 µM
[24] = second compound 1 µM, first compound 10 µM
[25] = second compound 3.16 µM, first compound 0.0316 µM
[26] = second compound 3.16 µM, first compound 0.1 µM
[27] = second compound 3.16 µM, first compound 0.316 µM
[28] = second compound 3.16 µM, first compound 1 µM
[29] = second compound 3.16 µM, first compound 3.16 µM
[30] = second compound 3.16 µM, first compound 10 µM
[31] = second compound 10 µM, first compound 0.0316 µM
[32] = second compound 10 µM, first compound 0.1 µM
[33] = second compound 10 µM, first compound 0.316 µM
[34] = second compound 10 µM, first compound 1 µM
[35] = second compound 10 µM, first compound 3.16 µM
[36] = second compound 10 µM, first compound 10 µM
[37] = second compound 0.0316 µM, first compound 0.00316 µM
[38] = second compound 0.0316 µM, first compound 0.01 µM
[39] = second compound 0.1 µM, first compound 0.00316 µM
[40] = second compound 0.1 µM, first compound 0.01 µM
[41] = second compound 0.316 µM, first compound 0.00316 µM
[42] = second compound 0.316 µM, first compound 0.01 µM
[43] = second compound 1 µM, first compound 0.00316 µM
[44] = second compound 1 µM, first compound 0.01 µM
[45] = second compound 3.16 µM, first compound 0.00316 µM
[46] = second compound 3.16 µM, first compound 0.01 µM
[47] = second compound 10 µM, first compound 0.00316 µM
[48] = second compound 10 µM, first compound 0.01 µM
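Also: spheroids exposed to drugs for seven days before readout.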
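For viability, T/C in this document: 100% = DMSO vehicle control wells.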

Structure (SMILES): CC(CO)NC(=O)c1cc(-c2ccc(Cl)cc2)nn(-c2cnn(C)c2)c1=O (stereo not drawn) + CN1CCN(c2cc(C(=O)Nc3cc4cc(-c5cnn(C)c5)ccc4cn3)ccn2)CC1
- IC50 (second compound 0.0316 µM): > 10000 nM
- IC50 (second compound 0.1 µM): > 10000 nM
- IC50 (second compound 0.316 µM): < 31.6 nM
- IC50 (second compound 1 µM): < 31.6 nM
- IC50 (second compound 3.16 µM): < 31.6 nM
- IC50 (second compound 10 µM): < 31.6 nM
- viability, T/C [1]: 85.4%
- viability, T/C [2]: 97.9%
- viability, T/C [3]: 95.9%
- viability, T/C [4]: 104%
- viability, T/C [5]: 101%
- viability, T/C [6]: 90.2%
- viability, T/C [7]: 72.6%
- viability, T/C [8]: 83.2%
- viability, T/C [9]: 77.1%
- viability, T/C [10]: 93.9%
- viability, T/C [11]: 90.5%
- viability, T/C [12]: 69.4%
- viability, T/C [13]: 8.6%
- viability, T/C [14]: 12.4%
- viability, T/C [15]: 11.9%
- viability, T/C [16]: 12.4%
- viability, T/C [17]: 13.4%
- viability, T/C [18]: 9.74%
- viability, T/C [19]: 0.24%
- viability, T/C [20]: 0.3%
- viability, T/C [21]: 0.22%
- viability, T/C [22]: 0.28%
- viability, T/C [23]: 0.25%
- viability, T/C [24]: 0.24%
- viability, T/C [25]: 2.96%
- viability, T/C [26]: 0.65%
- viability, T/C [27]: 0.95%
- viability, T/C [28]: 0.69%
- viability, T/C [29]: 1.1%
- viability, T/C [30]: 0.53%
- viability, T/C [31]: 0.44%
- viability, T/C [32]: 0.45%
- viability, T/C [33]: 0.33%
- viability, T/C [34]: 1.12%
- viability, T/C [35]: 1.09%
- viability, T/C [36]: 0.43%

Structure (SMILES): CC(Nc1ccc2c(c1)OCCn1cc(N3C(=O)OCC3C(F)F)nc1-2)C(N)=O (stereo not drawn) + CN1CCN(c2cc(C(=O)Nc3cc4cc(-c5cnn(C)c5)ccc4cn3)ccn2)CC1
- IC50 (second compound 0.0316 µM): 280 nM
- IC50 (second compound 0.1 µM): 242 nM
- IC50 (second compound 0.316 µM): < 31.6 nM
- IC50 (second compound 1 µM): < 31.6 nM
- IC50 (second compound 3.16 µM): < 31.6 nM
- IC50 (second compound 10 µM): < 31.6 nM
- viability, T/C [1]: 88.2%
- viability, T/C [2]: 66.4%
- viability, T/C [3]: 46.1%
- viability, T/C [4]: 35.4%
- viability, T/C [5]: 26.4%
- viability, T/C [6]: 15.5%
- viability, T/C [7]: 72.1%
- viability, T/C [8]: 69.4%
- viability, T/C [9]: 40.8%
- viability, T/C [10]: 30.4%
- viability, T/C [11]: 20.1%
- viability, T/C [12]: 13.7%
- viability, T/C [13]: 7.06%
- viability, T/C [14]: 6.03%
- viability, T/C [15]: 4.86%
- viability, T/C [16]: 2.74%
- viability, T/C [17]: 2.03%
- viability, T/C [18]: 0.75%
- viability, T/C [19]: 0.18%
- viability, T/C [20]: 0.12%
- viability, T/C [21]: 0.13%
- viability, T/C [22]: 0.11%
- viability, T/C [23]: 0.07%
- viability, T/C [24]: 0.06%
- viability, T/C [25]: 0.43%
- viability, T/C [26]: 0.67%
- viability, T/C [27]: 0.28%
- viability, T/C [28]: 0.23%
- viability, T/C [29]: 0.24%
- viability, T/C [30]: 0.18%
- viability, T/C [31]: 0.28%
- viability, T/C [32]: 0.21%
- viability, T/C [33]: 0.23%
- viability, T/C [34]: 0.3%
- viability, T/C [35]: 0.29%
- viability, T/C [36]: 0.26%

Structure (SMILES): CCN1CCN(Cc2ccc(Nc3ncc(F)c(-c4cc(F)c5nc(C)n(C(C)C)c5c4)n3)nc2)CC1 + CN1CCN(c2cc(C(=O)Nc3cc4cc(-c5cnn(C)c5)ccc4cn3)ccn2)CC1
- IC50 (second compound 0.0316 µM): 262 nM
- IC50 (second compound 0.1 µM): 158 nM
- IC50 (second compound 0.316 µM): < 3.16 nM
- IC50 (second compound 1 µM): < 3.16 nM
- IC50 (second compound 3.16 µM): < 3.16 nM
- IC50 (second compound 10 µM): < 3.16 nM
- viability, T/C [37]: 82.8%
- viability, T/C [38]: 97.1%
- viability, T/C [1]: 87.7%
- viability, T/C [2]: 56.2%
- viability, T/C [3]: 54.6%
- viability, T/C [4]: 42.9%
- viability, T/C [39]: 66.3%
- viability, T/C [40]: 72.4%
- viability, T/C [7]: 76.2%
- viability, T/C [8]: 59.9%
- viability, T/C [9]: 34.8%
- viability, T/C [10]: 30.4%
- viability, T/C [41]: 7.42%
- viability, T/C [42]: 10.2%
- viability, T/C [13]: 14.1%
- viability, T/C [14]: 13.1%
- viability, T/C [15]: 18%
- viability, T/C [16]: 14.3%
- viability, T/C [43]: 0.35%
- viability, T/C [44]: 0.82%
- viability, T/C [19]: 1.18%
- viability, T/C [20]: 0.5%
- viability, T/C [21]: 0.97%
- viability, T/C [22]: 1.71%
- viability, T/C [45]: 0.55%
- viability, T/C [46]: 1.57%
- viability, T/C [25]: 0.95%
- viability, T/C [26]: 0.83%
- viability, T/C [27]: 2.86%
- viability, T/C [28]: 2.68%
- viability, T/C [47]: 0.5%
- viability, T/C [48]: 0.53%
- viability, T/C [31]: 0.3%
- viability, T/C [32]: 0.46%
- viability, T/C [33]: 0.64%
- viability, T/C [34]: 0.65%

Structure (SMILES): COc1c(OCCCN2CCOCC2)ccc2c3n(c(=NC(=O)c4cnc(N)nc4)nc12)CCN3 + CN1CCN(c2cc(C(=O)Nc3cc4cc(-c5cnn(C)c5)ccc4cn3)ccn2)CC1
- IC50 (second compound 0.0316 µM): 16.8 nM
- IC50 (second compound 0.1 µM): 16.1 nM
- IC50 (second compound 0.316 µM): < 3.16 nM
- IC50 (second compound 1 µM): < 3.16 nM
- IC50 (second compound 3.16 µM): < 3.16 nM
- IC50 (second compound 10 µM): < 3.16 nM
- viability, T/C [37]: 99.6%
- viability, T/C [38]: 62.2%
- viability, T/C [1]: 36.4%
- viability, T/C [2]: 11.9%
- viability, T/C [3]: 3.81%
- viability, T/C [4]: 2.23%
- viability, T/C [39]: 72.3%
- viability, T/C [40]: 63.5%
- viability, T/C [7]: 31.1%
- viability, T/C [8]: 10.7%
- viability, T/C [9]: 3.24%
- viability, T/C [10]: 2.43%
- viability, T/C [41]: 8.06%
- viability, T/C [42]: 6.72%
- viability, T/C [13]: 3.02%
- viability, T/C [14]: 1.03%
- viability, T/C [15]: 0.35%
- viability, T/C [16]: 0.51%
- viability, T/C [43]: 0.24%
- viability, T/C [44]: 0.17%
- viability, T/C [19]: 0.09%
- viability, T/C [20]: 0.07%
- viability, T/C [21]: 0.05%
- viability, T/C [22]: 0.12%
- viability, T/C [45]: 0.37%
- viability, T/C [46]: 0.37%
- viability, T/C [25]: 0.6%
- viability, T/C [26]: 0.12%
- viability, T/C [27]: 0.13%
- viability, T/C [28]: 0.1%
- viability, T/C [47]: 0.23%
- viability, T/C [48]: 0.33%
- viability, T/C [31]: 0.19%
- viability, T/C [32]: 0.18%
- viability, T/C [33]: 0.32%
- viability, T/C [34]: 0.15%

Reference: PubChem BioAssay AID2060609 (Molecular Pharmacology Branch, DTP, NCI, 2025)
